Legend:
[1] = system: Escherichia coli ATCC 25922; assay: Colistin broth microdilution MIC with potentiator compounds (Example 1); type: cell-based; details: E. coli ATCC 25922; MIC in the presence of 1.0% DMSO / MIC in the presence of 0.1 mM potentiator compound and 1.0% DMSO; positive = increased, negative = decreased susceptibility, 1 = no effect
[2] = system: Pseudomonas aeruginosa ATCC 27853; assay: as above; type: cell-based; details: P. aeruginosa ATCC 27853; MIC in the presence of 1.0% DMSO / MIC in the presence of 0.1 mM potentiator compound and 1.0% DMSO; positive = increased, negative = decreased susceptibility, 1 = no effect
[3] = system: Enterobacter aerogenes ATCC 13048; assay: as above; type: cell-based; details: E. aerogenes ATCC 13048; MIC in the presence of 1.0% DMSO / MIC in the presence of 0.1 mM potentiator compound and 1.0% DMSO; positive = increased, negative = decreased susceptibility, 1 = no effect
[4] = system: A. baumannii ATCC 15308; assay: Broth microdilution MIC of other antibiotics with potentiator compounds (Example 2); type: cell-based, Acinetobacter baumannii
Description: (§1) Following the procedure of Example 1, ciprofloxacin, amikacin, levofloxacin, tigecycline, imipenem and the combination trimethoprim/sulfamethoxasole (1:19) were tested. All were purchased from Sigma-Aldrich Co.
(§2) Minimal inhibitory concentration (MIC) of the antibiotic or the test combinations were determined by the broth microdilution method.
(§3) Antibiotic stock solutions were prepared according to CLSI recommendations and sterilizing by passage through 0.20 µm filters.
(§4) Antimicrobial susceptibility testing of these isolates was performed using the broth microdilution (BMD) method, according to CLSI guidelines.
(§5) The fold increase in bacterial susceptibility to antibiotics when combined with the potentiator compound (expressed as MIC in the presence of 1.0% DMSO / MIC in the presence of 0.1 mM of each potentiator compound and 1.0% DMSO) are shown in Table 4: […]

[5] = system: P. aeruginosa ATCC 27853; assay: as above; type: cell-based, Pseudomonas aeruginosa; details: any of ciprofloxacin, amikacin, levofloxacin, tigecycline, imipenem, TMP/SMX (1:19), 0.1 mM potentiator, 1.0% DMSO, 'none' = no antibiotic potentiated
Description: as §1, §2, §3, §4, §5

[6] = system: S. aureus F-182; assay: Broth microdilution MIC of compound of formula I alone (Example 5); type: cell-based; details: Staphylococcus aureus, ATCC43300, Reference strain, ATCC 43300 (CLSI standard), read-out: Compound of formula I MIC in the presence of 1.0% DMSO
Description: (§6) The antimicrobial effect of the compound of formula I of the invention was tested in front of specific Gram-positive bacterium, Staphylococcus aureus, an agent usually involved in hospital-acquired infections. For this experiment the S. aureus reference and clinical isolates shown in Table 8 were used, including Methicillin-resistant S. aureus (MRSA): TABLE 8
(§7) Antimicrobial susceptibility testing of these isolates was performed using the broth microdilution (BMD) method, according to CLSI guidelines (Example 1).
(§8) Selected compound of formula I was first dissolved in 100% of sterile-filtered dimethyl sulfoxide (DMSO, Sigma, D2438) to 20 mM. 100 µL of bacterial suspension (final OD550nm=0.01) in MHB were added to the compound dilutions in each well (concentration range from 0.2 mM to 3.125 µM), and the final suspension was mixed and incubated without shaking at 37° C for 24 h before developing with 30 µL of a 0.01% aqueous solution of resazurin. For the experiment all bacteria were first grown overnight in CAMHB using CLSI recommended incubation conditions.
(§9) The compound MIC, expressed in mM, was defined as the lowest concentration of compound at which no visible growth was obtained.

[7] = system: S. aureus Newman; assay: as above; type: cell-based; details: Staphylococcus aureus, NBRC102137 / NEWMAN, Reference strain, NBRC 102137, read-out: Compound of formula I MIC in the presence of 1.0% DMSO
Description: as §6, §7, §8, §9

[8] = system: S. aureus RN4220; assay: as above; type: cell-based; details: Staphylococcus aureus, RN4220, read-out: Compound of formula I MIC in the presence of 1.0% DMSO
Description: as §6, §7, §8, §9

[9] = system: S. aureus RN6390; assay: as above; type: cell-based; details: Staphylococcus aureus, RN6390, read-out: Compound of formula I MIC in the presence of 1.0% DMSO
Description: as §6, §7, §8, §9

[10] = system: S. aureus RN6911; assay: as above; type: cell-based; details: Staphylococcus aureus, RN6911, read-out: Compound of formula I MIC in the presence of 1.0% DMSO
Description: as §6, §7, §8, §9

[11] = system: S. aureus SA0001; assay: as above; type: cell-based; details: Staphylococcus aureus, Clinical strain, (resistant to penicillin), read-out: Compound of formula I MIC in the presence of 1.0% DMSO
Description: as §6, §7, §8, §9

[12] = system: S. aureus SA0002; assay: as above; type: cell-based; details: Staphylococcus aureus, Clinical strain, (resistant to penicillin), read-out: Compound of formula I MIC in the presence of 1.0% DMSO
Description: as §6, §7, §8, §9

[13] = system: S. aureus SA0003; assay: as above; type: cell-based; details: Staphylococcus aureus, Clinical strain, (resistant to penicillin), read-out: Compound of formula I MIC in the presence of 1.0% DMSO
Description: as §6, §7, §8, §9

[14] = system: S. aureus SA0004; assay: as above; type: cell-based; details: Staphylococcus aureus, Clinical strain, (MRSA, and resistant to ciprofloxacin and cloxacillin), read-out: Compound of formula I MIC in the presence of 1.0% DMSO
Description: as §6, §7, §8, §9

[15] = system: S. aureus Seatle 1945; assay: as above; type: cell-based; details: Staphylococcus aureus, ATCC25923, Reference strain, ATCC 25923, read-out: Compound of formula I MIC in the presence of 1.0% DMSO
Description: as §6, §7, §8, §9

[16] = system: S. aureus USA 300; assay: as above; type: cell-based; details: Staphylococcus aureus, ATCC BAA-1556 / MRSA / USA300, Reference strain, read-out: Compound of formula I MIC in the presence of 1.0% DMSO
Description: as §6, §7, §8, §9

[17] = system: S. aureus V8; assay: as above; type: cell-based; details: Staphylococcus aureus, ATCC49775, Reference strain, ATCC 49775, read-out: Compound of formula I MIC in the presence of 1.0% DMSO
Description: as §6, §7, §8, §9

[18] = MIC in 1.0% DMSO / MIC with 0.1 mM potentiator compound and 1.0% DMSO

Question: For `CN(C)CCNC(=O)c1cccc(CNC(=O)Nc2ccc3c(c2)Cc2ccccc2-3)c1` [I, N-[2-(dimethylamino)ethyl]-3-[(9H-fluoren-2-ylcarbamoylamino)methyl]benzamide], which “Fold increase in bacterial susceptibility to colistin” value (from here on “Fold increase … to colistin”) [1] is on record?
Answer: +2 fold

Question: And the “Fold increase … to colistin” value [2]?
Answer: +2 fold

Question: What about the “Fold increase … to colistin” value [3] of the same compound?
Answer: +2 fold

Question: What about the “Fold increase in bacterial susceptibility to Imipenem” value [4, 18] of the same compound?
Answer: 2 fold

Question: And the “Fold increase in bacterial susceptibility to Levofloxacin” value [4, 18]?
Answer: 4 fold

Question: What about the “Fold increase in bacterial susceptibility to Tigecycline” value [4, 18] of the same compound?
Answer: 2 fold

Question: What about the “Fold increase in bacterial susceptibility to TMP/SMX” value ([4]; Trimethoprim:sulfamethoxazole 1:19, MIC in 1.0% DMSO / MIC with 0.1 mM potentiator compound and 1.0% DMSO) of the same compound?
Answer: 4 fold

Question: And the “Fold increase in bacterial susceptibility to antibiotic indicated” value [5]?
Answer: none

Question: And the MIC [6]?
Answer: 200 µM

Question: What about the MIC [7] of the same compound?
Answer: 200 µM

Question: And the MIC [8]?
Answer: 200 µM

Question: What about the MIC [9] of the same compound?
Answer: 200 µM

Question: And the MIC [10]?
Answer: 200 µM

Question: And the MIC [11]?
Answer: 200 µM

Question: What about the MIC [12] of the same compound?
Answer: 100 µM

Question: What about the MIC [13] of the same compound?
Answer: 100 µM

Question: And the MIC [14]?
Answer: 200 µM

Question: What about the MIC [15] of the same compound?
Answer: 200 µM

Question: And the MIC [16]?
Answer: 200 µM

Question: What about the MIC [17] of the same compound?
Answer: 200 µM

Reference: patent EP3294317B1, “ENHANCED ANTIBIOTIC COMPOSITION” (Universitat Autònoma de Barcelona, priority 2015, dated 2016)
